≈ marks a conversion by molar mass, not a printed value. Read-outs that look alike come from different tables or passages of the source. No end group written: not given here.

The subject of assay [1] is Mycobacterium phlei.
Assay [2] relates to HepG2 human hepatocellular carcinoma cells.
Protocol: The HepG2 cytotoxicity evaluation was performed by MB Research Labs (Spinnerstown, PA, United States) by the Neutral Red Uptake Bioassay of HepG2 human hepatocellular carcinoma cells in culture (ATCC #HB-8065). Briefly, HepG2 cells were seeded in the central 60 wells of 96-well plates and maintained in culture for approximately 24 h. Following pre-incubation, the culture medium was replaced with culture medium containing increasing concentrations of the test articles or control in the vehicle. Test articles were tested in triplicate wells, and reported as the mean. The cells were incubated for 24 h and cell viability was determined by Neutral Red (NR) uptake. For this assay, the medium was then replaced with NR medium (50 μg/mL NR in Hanks’ Balance Salt Solution, HBSS) and the cells were incubated for an additional 3 h. Following uptake of NR, the medium was discarded, the wells were washed with HBSS, and lysing solution (50:49:1 ethanol:water:acetic acid) was added subsequently to each well. The plates were placed on a rocker for 30 min until NR had been extracted from the cells and formed a homogeneous solution. The absorbance of each well was measured at 540 nm on a μQuant^TM plate reader (Bio-Tek Instruments) using KCjunior^TM software. The mean of the outer wells (DMEM2-FBS) was used as a reference control. The mean percent viability was determined for each concentration compared to the vehicle-treated control.
Assay [3] concerns Kv Channel. The experiment in a line: Safety Screen 44: Kv Channel. Type of assay: binding, human.
The test system of assay [4] is Nav Channel. In words: Safety Screen 44: Nav Channel. Type of assay: binding, human.
For assay [5], the system named is BZD (central). In words: Safety Screen 44: BZD (central). Type of assay: binding, human.
In assay [6] the test system is NMDA ion channel receptor. The experiment in a line: Safety Screen 44: NMDA. It is filed as binding, human.
Assay [7] relates to Ca2+ Channel. The experiment in a line: Safety Screen 44: Ca2+ Channel. It is filed as binding, human.
For assay [8], the system named is Nav Channel. In words: Safety Screen 44: Nav Channel. Type of assay: binding, human. This is another data set of the same source.
In assay [9] the test system is Kv Channel. The experiment in a line: Safety Screen 44: Kv Channel. It is filed as binding, human. The source holds these as a separate data set.
Assay [10] has as its system Ca2+ Channel. The experiment in a line: Safety Screen 44: Ca2+ Channel. It is filed as binding, human. This is another data set of the same source.
Assay [11] deals with BZD (central). In words: Safety Screen 44: BZD (central). Type of assay: binding, human. This is another data set of the same source.
In the next assay the test system is Streptococcus pneumonia. The experiment in a line: microbe, parasite or virus in culture. As to conditions: Streptococcus pneumoniae, read-out: MIC to S. pneumoniae.
Another assay concerns C. difficile. The arrangement: method as in McBride and Sonenshein, 2011. As to conditions: ref McBride and Sonenshein, 2011, cited from earlier work.
The test system of the next assay is Pseudomonas aeruginosa. The experiment in a line: MIC broth dilution, P. aeruginosa. It is filed as cell-based.
A further assay concerns Clostridium difficile. The note with it: n = 3 strains; unit from method b19.
For the next assay, the system named is C. difficile UNT103-1. The experiment in a line: Cannulated Syrian hamster efficacy/relapse model of C. difficile infection (cHCDAD). It is filed as in vivo, Golden Syrian hamsters. As to conditions: vancomycin 20 mg/Kg QD × 5 days, ileal canula, n = 6.
Assay [12] deals with Mycobacterium phlei. In words: microbe, parasite or virus in culture. The note with it: Mycolicibacterium phlei.
The subject of the next assay is Staphylococcus aureus. The note with it: n = 5 strains; unit from method b19.

Compound `C=C1NC(=O)[C@H](C(C)C)NC(=O)[C@H](NC(=O)[C@H](CCCCN)NC(=O)[C@@H](N)Cc2ccccc2)CSC[C@@H](C(=O)N[C@H]2C(=O)N3CCC[C@H]3C(=O)NCC(=O)N[C@H](C(=O)N[C@@H](C)C(=O)N[C@@H](CCCNC(=N)N)C(=O)N/C(=C\C)C(=O)NCC(=O)N[C@@H]3CSC[C@@H]4NC(=O)[C@H](Cc5ccc(O)cc5)NC(=O)[C@@H](CS/C=C\NC4=O)NC(=O)[C@H](CC(N)=O)NC(=O)[C@H](Cc4ccccc4)NC3=O)CS[C@H]2C)NC(=O)[C@H](CC(C)C)NC1=O` [W4V] registered a Minimum Inhibitory Concentration Mycobacterium phlei with Mycobacterium phlei [1] of 4 µg/mL. In addition, the “HepG2 EC50” value in assay [2] (24 h) is above 1002.
For `C=C1NC(=O)[C@H](Cc2c[nH]c3ccccc23)NC(=O)[C@H](NC(=O)[C@H](CCCCN)NC(=O)[C@@H](N)Cc2ccccc2)CSC[C@@H](C(=O)N[C@H]2C(=O)N3CCC[C@H]3C(=O)NCC(=O)N[C@H](C(=O)N[C@@H](C)C(=O)N[C@@H](CCCNC(=N)N)C(=O)N/C(=C\C)C(=O)NCC(=O)N[C@@H]3CSC[C@@H]4NC(=O)[C@H](Cc5ccc(O)cc5)NC(=O)[C@@H](CS/C=C\NC4=O)NC(=O)[C@H](CC(N)=O)NC(=O)[C@H](Cc4ccc(O)cc4)NC3=O)CS[C@H]2C)NC(=O)[C@H](CC(C)C)NC1=O` [F17Y], the “Cerep SafetyScreen 44 % Inhibition Kv Channel” value in the assay on Kv Channel [3] worked out at 2%. Besides, the “Cerep SafetyScreen 44 % Inhibition Nav Channel” value with Nav Channel [4] is recorded as 2%. This compound gave a Minimum Inhibitory Concentration Mycobacterium phlei with Mycobacterium phlei [1] of 2 µg/mL. For the same compound, the “Cerep SafetyScreen 44 % Inhibition BZD (central)” value in the assay with BZD (central) [5] is recorded as -10%. The “Cerep SafetyScreen 44 % Inhibition NMDA” value in assay [6] ([…]) came to 12%. Also, the HepG2 EC50 in [2] (HepG2 cytotoxicity) turned out to be 514 µg/mL. The “Cerep SafetyScreen 44 % Inhibition Ca2+ Channel” value in the assay with Ca2+ Channel [7] is reported as -7%.
Turning to `C=C1NC(=O)[C@H](Cc2c[nH]c3ccccc23)NC(=O)[C@H](NC(=O)[C@H](CCCCN)NC(=O)[C@@H](N)Cc2ccccc2)CSC[C@@H](C(=O)N[C@H]2C(=O)N3CCC[C@H]3C(=O)NCC(=O)N[C@H](C(=O)N[C@@H](C)C(=O)N[C@@H](CCCNC(=N)N)C(=O)N/C(=C\C)C(=O)NCC(=O)N[C@@H]3CSC[C@@H]4NC(=O)[C@H](Cc5ccc(O)cc5)NC(=O)[C@@H](CS/C=C\NC4=O)NC(=O)[C@H](CC(N)=O)NC(=O)[C@H](Cc4ccccc4)NC3=O)CS[C@H]2C)NC(=O)[C@H](C)NC1=O` [L6A], the “Cerep SafetyScreen 44 % Inhibition Nav Channel” value in the assay with Nav Channel [8] is 8%. Besides, the “Cerep SafetyScreen 44 % Inhibition Kv Channel” value with Kv Channel [9] is on record as 8%. Further, the “Cerep SafetyScreen 44 % Inhibition Ca2+ Channel” value in the assay with Ca2+ Channel [10] turned out to be 3%. The Minimum Inhibitory Concentration Mycobacterium phlei in the assay with Mycobacterium phlei [1] is 4 µg/mL. The “Cerep SafetyScreen 44 % Inhibition NMDA” value in [6] amounted to 15%. The “Cerep SafetyScreen 44 % Inhibition BZD (central)” value in the assay on BZD (central) [11] is -6%. Moreover, the HepG2 EC50 in [2] (HepG2 cytotoxicity) was found to be 466 µg/mL.
`C=C1NC(=O)[C@H](Cc2c[nH]c3ccccc23)NC(=O)[C@H](NC(=O)[C@H](CCCCN)NC(=O)[C@@H](N)Cc2ccccc2)CSC[C@@H](C(=O)N[C@H]2C(=O)N3CCC[C@H]3C(=O)NCC(=O)N[C@H](C(=O)N[C@@H](C)C(=O)N[C@@H](CC(C)C)C(=O)N/C(=C\C)C(=O)NCC(=O)N[C@@H]3CSC[C@@H]4NC(=O)[C@H](Cc5ccc(O)cc5)NC(=O)[C@@H](CS/C=C\NC4=O)NC(=O)[C@H](CC(N)=O)NC(=O)[C@H](Cc4ccccc4)NC3=O)CS[C@H]2C)NC(=O)[C@H](CC(C)C)NC1=O` [R13L] yielded a Minimum Inhibitory Concentration Mycobacterium phlei with Mycobacterium phlei [1] of 8 µg/mL.
Take `CC1(C)S[C@@H]2[C@H](NC(=O)[C@H](N)c3ccccc3)C(=O)N2[C@H]1C(=O)O` [ampicillin]: in the assay with Streptococcus pneumonia, the MIC amounted to 1 µg/mL (≈ 2.86 µM).
With “gallidermin (IASKFLCTPGCAKTGSFNSYCC; thioether (positions not given here); also: lanthionine/methyllanthionine bridges, places not given here; UniProt P21838 31-52, looked up) [lantibiotic cited from literature]”, in the assay with C. difficile (cpr resistance), the “MIC increase of C. difficile” value was 2–4 fold. Further, the “MIC of C. difficile” value in the assay with C. difficile (level after MIC increase (cpr)) is around 1 µg/mL.
With `CC1COc2c(N3CCN(C)CC3)c(F)cc3c(=O)c(C(=O)O)cn1c23` (stereo not drawn) [Ofloxacin], the MIC in the assay on Pseudomonas aeruginosa was determined as 1000 µg/mL (≈ 2770 µM).
In the case of `CN[C@H](CC(C)C)C(=O)N[C@H]1C(=O)N[C@@H](CC(N)=O)C(=O)N[C@H]2C(=O)N[C@H]3C(=O)N[C@H](C(=O)N[C@H](C(=O)O)c4cc(O)cc(O)c4-c4cc3ccc4O)[C@H](O)c3ccc(c(Cl)c3)Oc3cc2cc(c3O[C@@H]2O[C@H](CO)[C@@H](O)[C@H](O)[C@H]2O[C@H]2C[C@](C)(N)[C@H](O)[C@H](C)O2)Oc2ccc(cc2Cl)[C@H]1O` [vancomycin], in the assay with Clostridium difficile, the “MIC against C. difficile (range)” value is 0.5 to 4 µg/mL. For the same compound, the “survival at day 21” value in the assay on C. difficile UNT103-1 came out at 33%. Besides, the MIC in the assay with Mycobacterium phlei [12] (read-out: MIC, M. phlei) was determined as 0.25 µg/mL (≈ 0.173 µM); with Mycobacterium phlei [12] (read-out: Minimum Inhibitory Concentration Mycobacterium phlei), 250 µg/mL (≈ 173 µM). The “MIC against S. aureus (range)” value against Staphylococcus aureus lay within 0.125 to 2 µg/mL.
As for `C=C1NC(=O)[C@H](Cc2c[nH]c3ccccc23)NC(=O)[C@H](NC(=O)[C@H](CCCCN)NC(=O)[C@@H](N)Cc2ccccc2)CSC[C@@H](C(=O)N[C@H]2C(=O)N[C@@H](Cc3c[nH]cn3)C(=O)NCC(=O)N[C@H](C(=O)N[C@@H](C)C(=O)N[C@@H](CCCNC(=N)N)C(=O)N/C(=C\C)C(=O)NCC(=O)N[C@@H]3CSC[C@@H]4NC(=O)[C@H](Cc5ccc(O)cc5)NC(=O)[C@@H](CS/C=C\NC4=O)NC(=O)[C@H](CC(N)=O)NC(=O)[C@H](Cc4ccccc4)NC3=O)CS[C@H]2C)NC(=O)[C@H](CC(C)C)NC1=O` [P9H], the Minimum Inhibitory Concentration Mycobacterium phlei with Mycobacterium phlei [1] came out at 4 µg/mL. The same compound showed a HepG2 EC50 in assay [2] (24 h) of 218 µg/mL.
For `C=C1NC(=O)[C@H](C)NC(=O)[C@H](NC(=O)[C@H](CCCCN)NC(=O)[C@@H](N)Cc2ccccc2)CSC[C@@H](C(=O)N[C@H]2C(=O)N3CCC[C@H]3C(=O)NCC(=O)N[C@H](C(=O)N[C@@H](C)C(=O)N[C@@H](CCCNC(=N)N)C(=O)N/C(=C\C)C(=O)NCC(=O)N[C@@H]3CSC[C@@H]4NC(=O)[C@H](Cc5ccc(O)cc5)NC(=O)[C@@H](CS/C=C\NC4=O)NC(=O)[C@H](CC(N)=O)NC(=O)[C@H](Cc4ccccc4)NC3=O)CS[C@H]2C)NC(=O)[C@H](CC(C)C)NC1=O` [W4A], in that order: 2 µg/mL and above 1001.
As for `C=C1NC(=O)[C@H](Cc2c[nH]c3ccccc23)NC(=O)[C@H](NC(=O)[C@H](CCCCN)NC(=O)[C@@H](N)Cc2ccccc2)CSC[C@@H](C(=O)N[C@H]2C(=O)N3CCC[C@H]3C(=O)NCC(=O)N[C@H](C(=O)N[C@@H](C)C(=O)N[C@@H](C)C(=O)N/C(=C\C)C(=O)NCC(=O)N[C@@H]3CSC[C@@H]4NC(=O)[C@H](Cc5ccc(O)cc5)NC(=O)[C@@H](CS/C=C\NC4=O)NC(=O)[C@H](CC(N)=O)NC(=O)[C@H](Cc4ccccc4)NC3=O)CS[C@H]2C)NC(=O)[C@H](CC(C)C)NC1=O` [R13A], the Minimum Inhibitory Concentration Mycobacterium phlei in the assay with Mycobacterium phlei [1] turned out to be 8 µg/mL.
As for `C=C1NC(=O)[C@H](Cc2c[nH]c3ccccc23)NC(=O)[C@H](NC(=O)[C@H](CCCCN)NC(=O)[C@@H](N)Cc2ccccc2)CSC[C@@H](C(=O)N[C@H]2C(=O)N3CCC[C@H]3C(=O)NCC(=O)N[C@H](C(=O)N[C@@H](C)C(=O)N[C@@H](CCCNC(=N)N)C(=O)N/C(=C\C)C(=O)NCC(=O)N[C@@H]3CSC[C@@H]4NC(=O)[C@H](Cc5ccc(O)cc5)NC(=O)[C@@H](CS/C=C\NC4=O)NC(=O)[C@H](CC(N)=O)NC(=O)[C@H](Cc4ccccc4)NC3=O)CS[C@H]2C)NC(=O)[C@H]([C@@H](C)O)NC1=O` [L6T], the Minimum Inhibitory Concentration Mycobacterium phlei in the assay on Mycobacterium phlei [1] worked out at 4 µg/mL. Further, the HepG2 EC50 in [2] (24 h) was determined as 541 µg/mL.

The record behind these values is publication PMC5864910, “Mutacin 1140 Lantibiotic Variants Are Efficacious Against Clostridium difficile Infection” (Frontiers in Microbiology, 2018).
